The text below walks through data of US20150126467A1, “USE OF ALGINATE OLIGOMERS TO ENHANCE THE EFFECTS OF ANTIFUNGAL AGENTS” (AlgiIPharma AS, priority 2011, published 2015).

Assay [1] has as its system C. krusei 141/03 (candidosis). Kind of assay: Standard MIC testing in RPMI medium (Example 3). The assay is classed as cell-based, Candida krusei. Particulars: Pichia kudriavzevii, 48 h, read-out: Minimum Inhibitory Concentration (MIC).
Procedure: (§1) Following retrieval from −80° C. storage, fungal colonies were grown on blood agar with 5% sheep blood and were used to inoculate tryptone soya broth (TSB) for overnight growth. […] Fungal cultures at 0.5 McFarland standard were diluted ten-fold in RPMI medium and 5 μl added to the media containing wells of the microtiter plates. Plates were wrapped in parafilm and incubated at 34° C. for 48 hours. MIC values were determined as the lowest concentration at which there was no visible growth.
Assay [2] deals with C. lusitaniae 994/01(2) (candidosis). The assay is described as follows: Standard MIC testing in RPMI medium (Example 3). Format: cell-based, Candida lusitaniae. Conditions: 48 h.
Procedure: as §1

Each structure is given as a SMILES string. Values after ≈ are worked out from the molar mass of the structure shown. Where two headings read alike, the source gives them in different places.

For the compound `OC(Cn1cncn1)(Cn1cncn1)c1ccc(F)cc1F` [Fluconazole, fluconazole], the MIC was determined as 128 µg/mL (≈ 418 µM) in assay [1] (0% OligoG); 64 µg/mL (≈ 209 µM) in assay [1] (2% OligoG); 64 µg/mL (≈ 209 µM) in assay [1] (6% OligoG); 32 µg/mL (≈ 104 µM) in assay [1] (10% OligoG); 2 µg/mL (≈ 6.53 µM) in assay [2] (Clavispora lusitaniae, 2% OligoG, read-out: Minimum Inhibitory Concentration (MIC)). Moreover, the “Minimum Inhibitory Concentration (MIC)” value in assay [2] (0% OligoG), in assay [2] (6% OligoG) and in assay [2] (10% OligoG) was 2 µg/mL throughout.
